Patent US20220395549A1, “COMPOSITIONS OF THE OLEA EUROPAEA V. SYLVESTRIS WITH ANTIMICROBIAL EFFICACY” (TAPROGGE GMBH, priority 2019, published 2022)

Assays:
S. aureus ATCC 6538 = assay: quantitative suspension assay of mono-substances; assay type: cell-based, Staphylococcus aureus; conditions: for Number of CFUs: initial cell load 9.5 × 10^4 CFU/ml
Outline: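 Hydroxytyrosol, uvaol and erythrodiol were tested at 2 mg/ml stock plus dilutions to 0.125 mg/ml (solvent methanol or chloroform, in water). Oleocanthal was tested at 1–0.125 mg/ml and oleacin at 0.25 and 0.125 mg/ml in ethanol/water. Inocula were ~100,000 CFU/ml at 20–25° C, sampled from 0 min to 72 h and plated on blood agar.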

[1] = solubility as encountered during the assays; assay type: physicochemical
Text: The reduction at the later points in time is due to the natural loss of viability of the bacteria.

With CC1(C)CC[C@]2(CO)CC[C@]3(C)C(=CC[C@@H]4[C@@]5(C)CC[C@H](O)C(C)(C)[C@@H]5CC[C@]43C)[C@@H]2C1 [erythrodiol] the “Number of CFUs” value (S. aureus ATCC 6538; 0.125 Ery/ml, t 0 min) was >10^4 CFU/ml, the “Number of CFUs” value (S. aureus ATCC 6538; 0.125 Ery/ml, t 12 min) was >10^4 CFU/ml and the “Number of CFUs” value (S. aureus ATCC 6538; 0.125 Ery/ml, t 30 min) was >10^4 CFU/ml. The “Number of CFUs” value (S. aureus ATCC 6538; 0.125 Ery/ml, t 60 min) was >10^4 CFU/ml, the “Number of CFUs” value (S. aureus ATCC 6538; 0.125 Ery/ml, t 24 h) was >10^4 CFU/ml and the “Number of CFUs” value (S. aureus ATCC 6538; 0.125 Ery/ml, t 48 h) was >10^4 CFU/ml. For the same molecule, the “Number of CFUs” value (S. aureus ATCC 6538; 0.125 Ery/ml, t 72 h) was >10^4 CFU/ml, the “Number of CFUs” value (S. aureus ATCC 6538; 0.25 Ery/ml, t 0 min) was 2.8 × 10^4 CFU/ml and the “Number of CFUs” value (S. aureus ATCC 6538; 0.25 Ery/ml, t 12 min) was 2.9 × 10^4 CFU/ml. The “Number of CFUs” value (S. aureus ATCC 6538; 0.25 Ery/ml, t 30 min) was 2.0 × 10^4 CFU/ml, the “Number of CFUs” value (S. aureus ATCC 6538; 0.25 Ery/ml, t 60 min) was 1.7 × 10^4 CFU/ml and the “Number of CFUs” value (S. aureus ATCC 6538; 0.25 Ery/ml, t 24 h) was >10^4 CFU/ml. For the same molecule, the “Number of CFUs” value (S. aureus ATCC 6538; 0.25 Ery/ml, t 48 h) was >10^4 CFU/ml, the “Number of CFUs” value (S. aureus ATCC 6538; 0.25 Ery/ml, t 72 h) was >10^4 CFU/ml and the “Number of CFUs” value (S. aureus ATCC 6538; 0.5 Ery/ml, t 0 min) was 1.9 × 10^4 CFU/ml. The “Number of CFUs” value (S. aureus ATCC 6538; 0.5 Ery/ml, t 12 min) was 2.0 × 10^4 CFU/ml, the “Number of CFUs” value (S. aureus ATCC 6538; 0.5 Ery/ml, t 30 min) was 1.8 × 10^4 CFU/ml and the “Number of CFUs” value (S. aureus ATCC 6538; 0.5 Ery/ml, t 60 min) was 1.0 × 10^4 CFU/ml. For the same molecule, the “Number of CFUs” value (S. aureus ATCC 6538; 0.5 Ery/ml, t 24 h) was >10^4 CFU/ml, the “Number of CFUs” value (S. aureus ATCC 6538; 0.5 Ery/ml, t 48 h) was >10^4 CFU/ml and the “Number of CFUs” value (S. aureus ATCC 6538; 0.5 Ery/ml, t 72 h) was >10^4 CFU/ml. For the same molecule, the “Number of CFUs” value (S. aureus ATCC 6538; 1.0 Ery/ml, t 0 min) was <100 CFU/ml, the “Number of CFUs” value (S. aureus ATCC 6538; 1.0 Ery/ml, t 12 min) was <100 CFU/ml and the “Number of CFUs” value (S. aureus ATCC 6538; 1.0 Ery/ml, t 30 min) was <100 CFU/ml. The “Number of CFUs” value (S. aureus ATCC 6538; 1.0 Ery/ml, t 60 min) was <100 CFU/ml, the “Number of CFUs” value (S. aureus ATCC 6538; 1.0 Ery/ml, t 24 h) was 1.7 × 10^4 CFU/ml and the “Number of CFUs” value (S. aureus ATCC 6538; 1.0 Ery/ml, t 48 h) was 1.0 × 10^4 CFU/ml. The “Number of CFUs” value (S. aureus ATCC 6538; 1.0 Ery/ml, t 72 h) was 8.8 × 10^3 CFU/ml, the “Number of CFUs” value (S. aureus ATCC 6538; 2.0 Ery/ml, t 0 min) was <100 CFU/ml and the “Number of CFUs” value (S. aureus ATCC 6538; 2.0 Ery/ml, t 12 min) was <100 CFU/ml. The “Number of CFUs” value (S. aureus ATCC 6538; 2.0 Ery/ml, t 30 min) was <100 CFU/ml, the “Number of CFUs” value (S. aureus ATCC 6538; 2.0 Ery/ml, t 60 min) was <100 CFU/ml and the “Number of CFUs” value (S. aureus ATCC 6538; 2.0 Ery/ml, t 24 h) was 8.2 × 10^3 CFU/ml. For the same molecule, the “Number of CFUs” value (S. aureus ATCC 6538; 2.0 Ery/ml, t 48 h) was <100 CFU/ml, the “Number of CFUs” value (S. aureus ATCC 6538; 2.0 Ery/ml, t 72 h) was <100 CFU/ml and the “antimicrobial effect, summary in words” value (S. aureus ATCC 6538; detection limit of the assay 100 CFU/ml) was “strong effect after incubation at concentrations of 2.0 Ery/ml”. The solubility [1] was “poor solubility”.
